Data reported in article PMC3404088, “Development of a Small D-Enantiomeric Alzheimer’s Amyloid-β Binding Peptide Ligand for Future In Vivo Imaging Applications” (PLoS ONE, 2012).
Square brackets hold non-standard residues; d marks the D form. Peptide text beside a SMILES is read from it. * marks the point of attachment. 5FAM = O=C1OC2(c3ccc(O)cc3Oc3cc(O)ccc32)c2ccc(C(=O)*)cc21

Assays:
[1] = Analysis of ACI-80 stability: N-terminal glutamine vs pyroglutamate content by HPLC/ESI-MS; assay type: physicochemical; settings: aqueous solution
Experimental: In solution, N-terminal glutamine peptides such as D1 are prone to convert into N-terminal pyroglutamate species: Gln-SHYRHISPAQV → Pyr-SHYRHISPAQV. Therefore, the stability of solid ACI-80, solid ACI-80-Kϕ (ϕ: fluorescein isothiocyanate, covalently linked to the peptide via a lysine (K)) and [^127I]-ACI-80 in solution was investigated by JPT Peptide Technologies GmbH, Berlin, Germany using HPLC/ESI-MS whereby the relative content of N-terminal Gln peptide and N-terminal Pyr peptide was assessed.
An important observation during initial compound stability characterization experiments was the partial conversion of the N-terminal glutamine of [^127I]-ACI-80 into pyro-glutamate. It is known that peptides with an N-terminal glutamine are prone to conversion of this residue into a pyroglutamate. Therefore, the composition of freshly synthesized and untreated ACI-80 and ACI-80-Kϕ as well as [^127I]-ACI-80 after iodination were investigated. […] It was observed that freshly synthesized ACI-80 and ACI-80-Kϕ contained only minor fractions of pyroglutamic acid while about one third of [^127I]-ACI-80 in solution already converted into N-terminal pyroglutamate species.

Aβ1–42 fibrils = target: T1, Aβ1–42 fibrils (Homo sapiens, UniProt P05067); assay: SPR single cycle experiments (Biacore T100), heterogeneous ligand model; assay type: binding; parameters: Rmax1 / Rmax2 / k off2: unit not given here; settings: for Rmax2 / k off1 / k off2 / k on1 / k on2 / Rmax1: PBS pH 7.4, 25°C, 30 µl/min; for Rmax1: global fit of three lowest responding concentrations
T1 construct: Aβ1–42 was dissolved in hexafluoroisopropanol (HFIP)
Experimental: Aβ1–42 fibrils were prepared as described above. Thereafter, the sample was centrifuged for 10 min at 16000×g, the supernatant discarded and this procedure repeated for 3 times. Formation of fibrils was confirmed by a standard Thioflavin-T fluorescence assay. Aβ1–42 fibrils were covalently immobilized on a CM5 sensor chip via amine coupling. Prior to immobilization of Aβ1–42 fibrils the sample was centrifuged and fibrils resuspended in 10 mM sodium acetate buffer pH 4.0. Flow cell sensor surfaces were activated with a freshly prepared solution of 0.2 M 1-ethyl–3-(3-dimethylaminopropyl)-carbodiimide (EDC) and 0.05 M N-hydroxysuccinimide (NHS) at a constant flow rate of 10 µl/min for 420 s. Aβ1–42 fibrils (∼ 110 µM monomeric Aβ1–42) were injected for 600 s with a flow rate of 10 µl/min. Deactivation of the surface was performed by injection of 1 M ethanolamine-HCl pH 8.5 at the same flow rate and duration as in the activation step. In the reference cells the deactivation step was performed directly after the activation step. All SPR experiments were performed on a Biacore T100 system with series S CM5 sensor chips at 25°C. The system was run with the Biacore T100 Control Software Version 1.1.1. PBS (10 mM sodium phosphate buffer pH 7.4, 137 mM NaCl, 2.7 mM KCl) was chosen as running buffer (as previously during fibril formation) in order to minimize alterations of fibril organization. All buffers were sterile filtered (0.22 µm). After each docking of a sensor chip the detector was normalized with BIAnormalizing solution (70% glycerol, GE Healthcare) to compensate for slight differences in detector responses of individual sensor chips. For all interaction analyses the Type 1 reagent rack was used. Siliconized sample vials were used with their corresponding rubber caps (Type 2, GE Healthcare) to minimize evaporation effects. Throughout all runs the flow rate was set to 30 µl/min. All interaction studies were performed in single-cycle mode. Here, five different concentrations of analyte were passed through a reference cell and subsequently through flow cells with immobilized ligand within the same binding cycle for 60 seconds, starting with the lowest concentration. Successive injections were performed in the order of increasing concentrations. Each following concentration was a fivefold increase of the previous. The lowest analyte concentration was chosen to be 100 nM and therefore the following were 500, 2500, 12500 and 62500 nM. Biacore data were evaluated using BiaEvaluation 4.1.1 (GE Healthcare) and Biacore T100 Evaluation Software (GE Healthcare). Obtained binding data with compounds were double referenced. This was achieved by collecting the data in dual-channel mode with a reference flow cell connected upstream of the flow cell with immobilized Aβ1–42 fibrils and the subtraction of the obtained binding responses with a blank buffer injection (PBS).

T1 sequence (P05067 672-713 limits assumed): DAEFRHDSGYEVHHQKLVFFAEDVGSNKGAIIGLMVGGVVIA

SMILES | stability in aqueous solution [1] | Rmax2 (Aβ1–42 fibrils) | k off1 (Aβ1–42 fibrils) | k off2 (Aβ1–42 fibrils) | k on1 (Aβ1–42 fibrils) | k on2 (Aβ1–42 fibrils) | Rmax1 (Aβ1–42 fibrils) | dissociation constant (lowest K D of the two, words) (Aβ1–42 fibrils)
CC[C@@H](C)[C@@H](NC(=O)[C@@H](Cc1c[nH]cn1)NC(=O)[C@@H](CCCNC(=N)N)NC(=O)[C@@H](Cc1ccc(O)cc1)NC(=O)[C@@H](Cc1c[nH]cn1)NC(=O)[C@@H](CO)NC(=O)[C@H](N)CCC(N)=O)C(=O)N[C@H](CO)C(=O)N1CCC[C@@H]1C(=O)N[C@H](C)C(=O)N[C@H](CCC(N)=O)C(=O)N[C@H](CCCCN)C(=O)N[C@H](CCCCNC(=O)c1ccc2c(c1)C(=O)OC21c2ccc(O)cc2Oc2cc(O)ccc21)C(=O)O [ACI-87-Kϕ] (H-[dQ][dS][dH][dY][dR][dH][dI][dS][dP][dA][dQ][dK][dK](5FAM)-OH; N-terminus and C-terminus assumed) | stable in aqueous solution | 36.2 | 1.84e-3 | 0.0407 | 206 | 1.57e3 | 43.3 | 
CC[C@@H](C)[C@@H](NC(=O)[C@@H](Cc1c[nH]cn1)NC(=O)[C@@H](CCCNC(=N)N)NC(=O)[C@@H](Cc1ccc(O)cc1)NC(=O)[C@@H](Cc1c[nH]cn1)NC(=O)[C@H](N)CO)C(=O)N[C@H](CO)C(=O)N1CCC[C@@H]1C(=O)N[C@H](C)C(=O)N[C@H](CCC(N)=O)C(=O)N[C@H](CCCCN)C(=O)N[C@H](CCCCNC(=O)c1ccc2c(c1)C(=O)OC21c2ccc(O)cc2Oc2cc(O)ccc21)C(=O)O [ACI-88-Kϕ] (H-[dS][dH][dY][dR][dH][dI][dS][dP][dA][dQ][dK][dK](5FAM)-OH; N-terminus and C-terminus assumed) | stable in aqueous solution | 63.3 | 7.22e-3 | 0.0553 | 1.71e4 | 930 | 9.96 | submicromolar range
CC[C@@H](C)[C@@H](NC(=O)[C@@H](Cc1c[nH]cn1)NC(=O)[C@@H](CCCNC(=N)N)NC(=O)[C@@H](Cc1ccc(O)cc1)NC(=O)[C@@H](Cc1c[nH]cn1)NC(=O)[C@@H](CO)NC(=O)[C@H]1CCCN1)C(=O)N[C@H](CO)C(=O)N1CCC[C@@H]1C(=O)N[C@H](C)C(=O)N[C@H](CCC(N)=O)C(=O)N[C@H](CCCCN)C(=O)N[C@H](CCCCNC(=O)c1ccc2c(c1)C(=O)OC21c2ccc(O)cc2Oc2cc(O)ccc21)C(=O)O [ACI-89-Kϕ] (H-[dP][dS][dH][dY][dR][dH][dI][dS][dP][dA][dQ][dK][dK](5FAM)-OH; N-terminus and C-terminus assumed) | stable in aqueous solution | 19.4 | 0.162 | 0.0118 | 2.03e4 | 3.34e3 | 21.8 | 
